Measured values from US10988445B2 (AstraZeneca AB, priority 2015, dated 2021).

What follows are compounds tested on human TH17 cells (assay: Inhibition of IL-17 release from human TH17 cells). Conditions: Homo sapiens, 96 h, isolated human TH17 cells, 4 days culture, IL-17A by HTRF; read-out: pIC50 IL-17 release (converted).
Format: cell-based
Text: Inhibition of IL-17 Release from Human TH17 Cells (IL-17 Release)
This test is designed to screen compounds for their inhibitory effect on the release of IL-17 from isolated and cultured human TH17 cells.
Peripheral blood mononuclear cells (PBMC) were isolated from heparin treated human whole blood fromhealthy donors by density gradient centrifugation. TH17 cells (CD4+CXCR3-CCR6+) were enriched using a human TH17 Cell Enrichment Kit (Stemcell Technologies) according to the manufacturer's protocol. […] On day 4 supernatants were collected and IL-17A was measured using a Human IL-17 HTRF Assay kit (Cisbio Bioassays) according to the manufacturer's protocol. […] Results

SMILES | IC50 [nM]
CCS(=O)(=O)c1ccc2c(c1)CN(C(=O)CC1(OC)CC1)C2C(=O)Nc1ccc(C(O)(C(F)(F)F)C(F)(F)F)cc1 (stereo not drawn) [Example 112, 5-(Ethylsulfonyl)-N-[4-(1,1,1,3,3,3-hexafluoro-2-hydroxypropan-2-yl)phenyl]-2-[(1-methoxycyclopropyl)acetyl]-2,3-dihydro-1H-isoindole-1-carboxamide] | 31.6
CC(C)OC(=O)N1Cc2cc(S(C)(=O)=O)ccc2C1C(=O)Nc1ccc(C(O)(C(F)(F)F)C(F)(F)F)cc1 (stereo not drawn) [Example 420, Propan-2-yl 1-{[4-(1,1,1,3,3,3-hexafluoro-2-hydroxypropan-2-yl)phenyl]carbamoyl}-5-(methylsulfonyl)-1,3-dihydro-2H-isoindole-2-carboxylate] | 79.4
COCCS(=O)(=O)c1ccc2c(c1)CN(C(=O)CO)C2C(=O)Nc1ccc(C(O)(C(F)(F)F)C(F)(F)F)cc1 (stereo not drawn) [Example 705, N-[4-(1,1,1,3,3,3-Hexafluoro-2-hydroxypropan-2-yl)phenyl]-2-(hydroxyacetyl)-5-[(2-methoxyethyl)sulfonyl]-2,3-dihydro-1H-isoindole-1-carboxamide] | 100
COC1(C(=O)N2Cc3cc(S(C)(=O)=O)ccc3C2C(=O)Nc2ccc(C(O)(C(F)(F)F)C(F)(F)F)cc2F)CC1 (stereo not drawn) [Example 441, N-[2-Fluoro-4-(1,1,1,3,3,3-hexafluoro-2-hydroxypropan-2-yl)phenyl]-2-[(1-methoxycyclopropyl)carbonyl]-5-(methylsulfonyl)-2,3-dihydro-1H-isoindole-1-carboxamide] | 25.1
CC(CF)C(=O)N1Cc2cc(S(C)(=O)=O)ccc2C1C(=O)Nc1ccc(C(O)(C(F)(F)F)C(F)(F)F)cc1 (stereo not drawn) [Example 408, 2-(3-Fluoro-2-methylpropanoyl)-N-[4-(1,1,1,3,3,3-hexafluoro-2-hydroxypropan-2-yl)phenyl]-5-(methylsulfonyl)-2,3-dihydro-1H-isoindole-1-carboxamide] | 12.6
NC(C(=O)N1Cc2cc(S(=O)(=O)CC3CC3)ccc2C1C(=O)Nc1ccc(C(O)(C(F)(F)F)C(F)(F)F)cc1)C1CC1 (stereo not drawn) [Example 211, 2-[Amino(cyclopropyl)acetyl]-5-[(cyclopropylmethyl)sulfonyl]-N-[4-(1,1,1,3,3,3-hexafluoro-2-hydroxypropan-2-yl)phenyl]-2,3-dihydro-1H-isoindole-1-carboxamide] | 200
COC(=O)N1Cc2cc(S(=O)(=O)C3CC3)ccc2C1C(=O)Nc1ccc(C(O)(C(F)(F)F)C(F)(F)F)cc1 (stereo not drawn) [Example 602, Methyl 5-(cyclopropylsulfonyl)-1-{[4-(1,1,1,3,3,3-hexafluoro-2-hydroxypropan-2-yl)phenyl]carbamoyl}-1,3-dihydro-2H-isoindole-2-carboxylate] | 25.1
CNC(=O)N1Cc2cc(S(=O)(=O)CCOC)ccc2C1C(=O)Nc1ccc(C(O)(C(F)(F)F)C(F)(F)F)cc1 (stereo not drawn) [Example 707] | 50.1
COC(C)(C)C(=O)N1Cc2cc(S(C)(=O)=O)ccc2C1C(=O)Nc1ccc(C(O)(C(F)(F)F)C(F)(F)F)cc1 (stereo not drawn) [Example 419, N-[4-(1,1,1,3,3,3-Hexafluoro-2-hydroxypropan-2-yl)phenyl]-2-(2-methoxy-2-methylpropanoyl)-5-(methylsulfonyl)-2,3-dihydro-1H-isoindole-1-carboxamide] | 50.1
CS(=O)(=O)c1ccc2c(c1)CN(C(=O)C1(C#N)CC1)C2C(=O)Nc1ccc(C(O)(C(F)(F)F)C(F)(F)F)cc1F (stereo not drawn) [Example 436, 2-[(1-Cyanocyclopropyl)carbonyl]-N-[2-fluoro-4-(1,1,1,3,3,3-hexafluoro-2-hydroxypropan-2-yl)phenyl]-5-(methylsulfonyl)-2,3-dihydro-1H-isoindole-1-carboxamide] | 15.8
O=CN1Cc2cc(S(=O)(=O)CC3(O)CC3)ccc2C1C(=O)Nc1ccc(C(O)(C(F)(F)F)C(F)(F)F)cc1 (stereo not drawn) [Example 1102, 2-Formyl-N-[4-(1,1,1,3,3,3-hexafluoro-2-hydroxypropan-2-yl)phenyl]-5-{[(1-hydroxycyclopropyl)methyl]sulfonyl}-2,3-dihydro-1H-isoindole-1-carboxamide] | 31.6
O=C(Nc1ccc(C(O)(C(F)(F)F)C(F)(F)F)cc1)C1c2ccc(S(=O)(=O)C3CC3)cc2CN1C(=O)[C@H]1CCCO1 (stereo partly drawn) [Example 609, 5-(Cyclopropylsulfonyl)-N-[4-(1,1,1,3,3,3-hexafluoro-2-hydroxypropan-2-yl)phenyl]-2-[(2R)-tetrahydrofuran-2-ylcarbonyl]-2,3-dihydro-1H-isoindole-1-carboxamide] | 50.1
CC(C)CC(=O)N1Cc2cc(S(C)(=O)=O)ccc2C1C(=O)Nc1ccc(C(O)(C(F)(F)F)C(F)(F)F)cc1 (stereo not drawn) [Example 410, N-[4-(1,1,1,3,3,3-Hexafluoro-2-hydroxypropan-2-yl)phenyl]-2-(3-methylbutanoyl)-5-(methylsulfonyl)-2,3-dihydro-1H-isoindole-1-carboxamide] | 20
O=C(Nc1ccc(C(O)(C(F)(F)F)C(F)(F)F)cc1)C1c2ccc(S(=O)(=O)C3CC3)cc2CN1C(=O)[C@@H]1CCCO1 (stereo partly drawn) [Example 608, 5-(Cyclopropylsulfonyl)-N-[4-(1,1,1,3,3,3-hexafluoro-2-hydroxypropan-2-yl)phenyl]-2-[(2S)-tetrahydrofuran-2-ylcarbonyl]-2,3-dihydro-1H-isoindole-1-carboxamide] | 39.8
CC1(C(=O)N2Cc3cc(S(C)(=O)=O)ccc3C2C(=O)Nc2ccc(C(O)(C(F)(F)F)C(F)(F)F)cc2)CCO1 (racemic) [Example 445] | 25.1
CS(=O)(=O)c1ccc2c(c1)CN(C(=O)C1COC1)C2C(=O)Nc1ccc(C(O)(C(F)(F)F)C(F)(F)F)cc1 (stereo not drawn) [Example 444, N-[4-(1,1,1,3,3,3-Hexafluoro-2-hydroxypropan-2-yl)phenyl]-5-(methylsulfonyl)-2-(oxetan-3-ylcarbonyl)-2,3-dihydro-1H-isoindole-1-carboxamide] | 63.1
COC1(CC(=O)N2Cc3cc(S(C)(=O)=O)ccc3C2C(=O)Nc2ccc(C(O)(C(F)(F)F)C(F)(F)F)cc2)CC1 (stereo not drawn) [Example 417, N-[4-(1,1,1,3,3,3-Hexafluoro-2-hydroxypropan-2-yl)phenyl]-2-[(1-methoxycyclopropyl)acetyl]-5-(methylsulfonyl)-2,3-dihydro-1H-isoindole-1-carboxamide] | 31.6
CCC(OC)C(=O)N1Cc2cc(S(=O)(=O)NC)ccc2C1C(=O)Nc1ccc(C(O)(C(F)(F)F)C(F)(F)F)cc1 (stereo not drawn) [Example 312, N-[4-(1,1,1,3,3,3-Hexafluoro-2-hydroxypropan-2-yl)phenyl]-2-(2-methoxybutanoyl)-5-(methylsulfamoyl)-2,3-dihydro-1H-isoindole-1-carboxamide] | 39.8
CCOC(=O)N1Cc2cc(S(=O)(=O)CC3CC3)ccc2C1C(=O)Nc1ccc(C(O)(C(F)(F)F)C(F)(F)F)cc1 (stereo not drawn) [Example 204, Ethyl 5-[(cyclopropylmethyl)sulfonyl]-1-{[4-(1,1,1,3,3,3-hexafluoro-2-hydroxypropan-2-yl)phenyl]carbamoyl}-1,3-dihydro-2H-isoindole-2-carboxylate] | 7.94

Same assay, conditions: isolated human TH17 cells, 4 days culture, IL-17A by HTRF; listed as 303, isomer 1

SMILES | pIC50 IL-17 release
CC[C@@H](O)C(=O)N1Cc2cc(S(=O)(=O)NC)ccc2C1C(=O)Nc1ccc(C(O)(C(F)(F)F)C(F)(F)F)cc1 (single isomer, unassigned) [Example 303, isomer 1] | 6.7

Same assay, conditions: isolated human TH17 cells, 4 days culture, IL-17A by HTRF; listed as 452, isomer 2

SMILES | pIC50 IL-17 release
CC1(C(=O)N2Cc3cc(S(C)(=O)=O)ccc3[C@@H]2C(=O)Nc2ccc(C(O)(C(F)(F)F)C(F)(F)F)cc2)CCO1 (single isomer, unassigned) [Example 452, isomer 2] | 7.3
